The results in this text go back to PMC8757871, “Bridging the Antimicrobial Activity of Two Lactoferricin Derivatives in E. coli and Lipid-Only Membranes” (Frontiers in Medical Technology, 2021).

Experiment [1] is described as follows: ANTS/DPX dye leakage assay and equi-activity partitioning analysis. As to conditions: for K (mole fraction partitioning coefficient) / RB ([P]B/[L]) / [P]W (peptide concentration in the water phase): fit of Equation (4), [L] = (1−20) mM, [P] = (0.05−2) mM, HBS. The protocol:
(§1) All hydrated samples were equilibrated for 1 h at 40°C followed by 5 freeze-and-thaw cycles using liquid N2 and intermittent vortex-mixing. Large unilamellar vesicles (LUVs) were obtained by 31 extrusions with a handheld mini extruder (Avanti Polar Lipids, Alabaster, AL) using a 100 nm pore diameter polycarbonate filter. Vesicle size and polydispersity were determined via DLS using a Zetasizer NANO ZSP (Malvern Panalytical, Malvern, UK). ANTS/DPX-containing vesicles were separated from free ANTS/DPX by exclusion chromatography using a column filled with SephadexTM G-75 (Amersham Biosciences, Little Chalfont, UK) fine gel swollen in iso-osmotic HBS. Phospholipid concentrations for all samples were determined by phosphate analysis.
Dye leakage experiments were performed combining previously reported protocols ([20], [27]). […] Similar time protocols were applied previously ([27]) and are justified here based on separate time-resolved leakage experiments (Supplementary Figure 3) and Trp-fluorescence measurements (Figure 3), showing that a quasi steady state has been reached after 1 h. Before measurements, lipid/peptide solutions were diluted with HBS to a lipid concentration of 50 μM, and every measurement was repeated at least twice. Vesicle size was checked after each incubation period using DLS. Samples were excited at λ= 360 nm, and the intensity of the fluorescence emission peak at λ= 530 nm, Ip, was recorded with a slit width of 10 nm for both excitation and emission monochromators. Measurements were performed in quartz cuvettes in 2 ml of the iso-osmotic buffer on a Cary Eclipse Fluorescence Spectrophotometer (Varian/Agilent Technologies, Palo Alto, CA). The percentage of leakage, E%, was calculated according to the relation
(1) E%=Ip-Imin/Imax-Imin,
where Imin is the initial fluorescence without peptide, and Imax is the fluorescence corresponding to 100% leakage determined through the addition of a 1 vol% solution of Triton X-100. The initial, monotonic increase of E% values with increasing [P] was interpolated with a sigmoidal function. This enabled us to obtain peptide and lipid concentrations leading to a specific E% value, which can in turn be used to calculate the partitioning parameters (see section 2.3.1).
(§2) (4) [P]=RB[W]/K︸[P]W+RB[L]︸[P]B=RB([W]/K+[L]),

A short description of experiment [2]: peptide partitioning from tryptophan fluorescence. Conditions: for K (mole fraction partitioning coefficient) / RB ([P]B/[L]) / [P]W (peptide concentration in the water phase): Trp emission band analysis, after 1 h incubation, HBS pH 7.4, 37°C. It counts as binding. The method, then: as §1
Fluorescence emission from Trp, present in both peptides, was measured with the Cary Eclipse Fluorescence Spectrophotometer, setting the excitation wavelength to λ= 280 nm, which corresponds to the maximum intensity of the Trp absorption/excitation band. Intensities of exciting and emitting light were adjusted by setting the slit widths of both incident and outgoing beam to 5 or 10 nm, depending on the emission intensity, in order to optimize the signal-to-noise ratio. Emission spectra were background-subtracted to remove contributions originating from the instrument's baseline and scattered light from vesicles. All samples were measured in HBS at 37°C using a quartz cuvette, with a magnetic stirrer to prevent sample sedimentation in the case of aggregation. LUVs ([L] = 100 μM) were mixed with peptides ([P] = 2 and 4 μM), recording fluorescence spectra at various post-mixing time intervals ranging from 0.5 to 60 min. Peptide solutions were measured at concentrations of 2, 3, and 4 μM in order to calibrate their intensity dependence in buffer.
The fluorescence emission band was fitted with the log-normal-like function ([32], [33]) where λmax and I0 are, respectively, wavelength and intensity of the emission peak; Γ is the full-width-at-half-maximum (FWHM) of the band; α is a skewness parameter (fixed at an optimum values 1.36 after testing); and y = α/(α^2 − 1). Spectra from mixtures of LUVs and peptides were analyzed with a linear combination of two independent bands I^W and I^B, referring to AMPs in bulk (W) and partitioned into the lipid bilayer (B). λ^W and Γ^W were fixed to the reference values obtained by analyzing spectra from pure AMPs. Instead, I0W , I0B , λ^B, and Γ^B were adjustable parameters. The so obtained set of I0W values was converted to the concentration of dissociated peptides [P]W and further analyzed for peptide partitioning as detailed in section 2.3.1.
Following a previously reported thermodynamic formalism for the partitioning of peptides into lipid bilayers ([37]), based on the free energy of transfer of molecules from water into octanol ([38]), we define the mole fraction partitioning coefficient, K, as […]
(3) K=[P]B/([P]B+[L])/[P]W/([P]W+[W])≃[P]B[W]/[P]W[L], where [P]B is the molar concentration of peptides partitioned into the lipid phase; [P]W is the peptide concentration in the water phase; and [L] and [W] are, respectively, the molar concentrations of lipids and bulk water (55.5 M at 25°C and 55.3 M at 37°C). The approximation for K (Equation 3) is obtained applying [W] ≫ [PW] and [L] ≫ [PB] (similarly, the concentration of ions in water, i.e., buffer solutions, is negligible compared to [W]). By definition, the total concentration of peptides is [P] = [P]W + [P]B, thus leading to […]
as §2

Where [3] appears, read: POPG LUVs, leakage 10%, 1 h at 37°C.
The mark [4] stands for this setting: POPG LUVs, leakage 20%, 1 h at 37°C.
Setting [5] is: POPG LUVs, leakage 40%, 1 h at 37°C.
[6] abbreviates: POPE/POPG LUVs [L] = 100 μM, [P] = 2 μM.
Where [7] appears, read: POPE/POPG LUVs [L] = 100 μM, [P] = 4 μM.
[8] abbreviates: POPE/POPG/TOCL LUVs [L] = 100 μM, [P] = 2 μM.
[9] abbreviates: POPE/POPG/TOCL LUVs [L] = 100 μM, [P] = 4 μM.
The mark [10] stands for this setting: POPG LUVs [L] = 100 μM, [P] = 2 μM.
[11] abbreviates: POPG LUVs [L] = 100 μM, [P] = 4 μM.

Consider “H-FWRIRIRR-NH2 [LF11-215, H-FWRIRIRR-NH2]”, for which the “K (mole fraction partitioning coefficient)” value was 2.4 ± 0.7 ×10^4 in experiment [1] (setting [3]); 4.2 ± 0.4 ×10^4 in experiment [1] (setting [4]); 5.4 ± 1.4 ×10^4 in experiment [1] (setting [5]); 70 ± 4 ×10^4 in experiment [2] (setting [6]); 43 ± 3 ×10^4 in experiment [2] (setting [7]); 82 ± 4 ×10^4 in experiment [2] (setting [8]). For the same substance, the “K (mole fraction partitioning coefficient)” value in experiment [2] (setting [9]) is reported as 139 ± 6 ×10^4; in experiment [2] (setting [10]) it was 161 ± 6 ×10^4; in experiment [2] (setting [11]), 217 ± 8 ×10^4. The “RB ([P]B/[L])” value is on record as 36 ± 4 ×10^−3 in experiment [1] (setting [3]); 55.9 ± 1.6 ×10^−3 in experiment [1] (setting [4]); 72 ± 6 ×10^−3 in experiment [1] (setting [5]); 11.2 ± 0.3 ×10^−3 in experiment [2] (setting [6]); 17.5 ± 0.7 ×10^−3 in experiment [2] (setting [7]); 11.9 ± 0.2 ×10^−3 in experiment [2] (setting [8]). Moreover, the results for the “RB ([P]B/[L])” value in experiment [2] (setting [9]), in experiment [2] (setting [10]) and in experiment [2] (setting [11]) were 28.6 ± 0.3 ×10^−3, 14.9 ± 0.3 ×10^−3 and 31.9 ± 0.4 ×10^−3, respectively. For the same substance, the “[P]W (peptide concentration in the water phase)” value was determined as 0.08 ± 0.03 mM in experiment [1] (setting [3]); 0.073 ± 0.009 mM in experiment [1] (setting [4]); 0.08 ± 0.03 mM in experiment [1] (setting [5]); 0.88 ± 0.03 µM in experiment [2] (setting [6]); 2.25 ± 0.07 µM in experiment [2] (setting [7]); 0.81 ± 0.02 µM in experiment [2] (setting [8]). For the same substance, the “[P]W (peptide concentration in the water phase)” value worked out at 1.14 ± 0.03 µM in experiment [2] (setting [9]), 0.513 ± 0.015 µM in experiment [2] (setting [10]) and 0.81 ± 0.04 µM in experiment [2] (setting [11]). Further, in experiment [1] (POPG LUVs, 1 h at 37°C, increasing [P]), the “ANTS/DPX leakage, maximum reached (sigmoidal increase up to)” value was at most 100%. Moreover, the “fraction of peptides partitioned into the lipid phase” value in experiment [1] (POPG, at [L] ≃20 mM) is given as over 90%. For the same substance, the “membrane partitioning, times higher than for LF11-324” value in experiment [2] (POPE/POPG/TOCL lipid mixtures) was ~ 1.3 times.

With “H-PFFWRIRIRR-NH2 [LF11-324, H-PFFWRIRIRR-NH2]”, the “K (mole fraction partitioning coefficient)” value is 67 ± 4 ×10^4 in experiment [2] (setting [6]); 47 ± 3 ×10^4 in experiment [2] (setting [7]); 63 ± 4 ×10^4 in experiment [2] (setting [8]); 111 ± 5 ×10^4 in experiment [2] (setting [9]); 61 ± 4 ×10^4 in experiment [2] (setting [10]); 20 ± 20 ×10^4 in experiment [2] (setting [11]). The “RB ([P]B/[L])” value in experiment [2] (setting [6]) is on record as 11.0 ± 0.3 ×10^−3; in experiment [2] (setting [7]) it was 18.4 ± 0.6 ×10^−3; in experiment [2] (setting [8]), 10.6 ± 0.3 ×10^−3; in experiment [2] (setting [9]) it was 26.7 ± 0.4 ×10^−3; in experiment [2] (setting [10]) it was 10.5 ± 0.3 ×10^−3; in experiment [2] (setting [11]), 10.7 ± 0.9 ×10^−3. Besides, the “[P]W (peptide concentration in the water phase)” value is 0.90 ± 0.02 µM in experiment [2] (setting [6]); 2.16 ± 0.06 µM in experiment [2] (setting [7]); 0.95 ± 0.03 µM in experiment [2] (setting [8]); 1.33 ± 0.04 µM in experiment [2] (setting [9]); 0.95 ± 0.03 µM in experiment [2] (setting [10]); 2.93 ± 0.09 µM in experiment [2] (setting [11]).
